Results on 7 compounds are retold here after PubChem BioAssay (NCI).

Several values for one entry are separate records, joined by “and”; a condition that tells them apart may be missing. Equal values may be shown once.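 Protocol summary: plate cells (96-well), add compound at 5 concentrations, incubate 48 h, interpolate endpoints linearly. GI50 = concentration required for 50% inhibition of growth. Definition used: TGI = concentration required for complete inhibition of growth.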

Some test systems named below: DU-145 prostate; SK-MEL-5 melanoma; 786-0 renal; SNB-19 CNS; MDA-MB-231 breast; SK-OV-3 ovarian; PC-3 prostate; CCRF-CEM leukemia; HS 578T breast; MCF7 breast.
Assay in all cases: NCI anticancer screen, dose series, 48 h

`CC(C)[C@H](O)C(=O)N[C@@H](C)C(=O)N[C@@H]1C(=O)N(C)CCc2ccccc21`: the GI50 in the test with DU-145 prostate, in the test with SK-MEL-5 melanoma, in the test on 786-0 renal, in the test on SNB-19 CNS, with MDA-MB-231 breast and in the test on SK-OV-3 ovarian was greater than 100 µM throughout. Also, the GI50 with PC-3 prostate, with CCRF-CEM leukemia, in the test on HS 578T breast and in the test on MCF7 breast was greater than 100 µM each time. For the same compound, the TGI in the test with DU-145 prostate, with SK-MEL-5 melanoma, with 786-0 renal, in the test with SNB-19 CNS, in the test with MDA-MB-231 breast and in the test on SK-OV-3 ovarian was greater than 100 µM in each case. In addition, the TGI with PC-3 prostate, in the test with CCRF-CEM leukemia, in the test on HS 578T breast and in the test on MCF7 breast was greater than 100 µM each time.

For `Nc1ccccc1O.O.O=C(O)C1[O][Sb][O]C1C(=O)O` (stereo not given), the GI50 is 14.6 µM with DU-145 prostate; 1.77 µM in the test on SK-MEL-5 melanoma; 10.5 µM in the test with 786-0 renal; 55.5 µM in the test with SNB-19 CNS; 23.6 µM with MDA-MB-231 breast; 88.3 µM in the test with SK-OV-3 ovarian. Moreover, the GI50 was 25.8 µM in the test on PC-3 prostate, 0.713 µM in the test with CCRF-CEM leukemia, 9.07 µM with HS 578T breast and 12.6 µM in the test with MCF7 breast. Moreover, the TGI is 27.8 µM in the test on DU-145 prostate; 3.99 µM in the test with SK-MEL-5 melanoma; 26 µM in the test with 786-0 renal; greater than 100 µM in the test on SNB-19 CNS; greater than 71.7 µM in the test on MDA-MB-231 breast; greater than 100 µM in the test on SK-OV-3 ovarian. For the same compound, the results for the TGI in the test with PC-3 prostate, with HS 578T breast and in the test on MCF7 breast were greater than 100 µM, 46.2 µM and 37.7 µM, respectively.

As for `CN(C)C(=S)SSC(=S)N(C)C`, the GI50 with DU-145 prostate was 20.6 µM; in the test on 786-0 renal, 18.2 µM and 35.2 µM and 17.3 µM; in the test on SNB-19 CNS it was 25.4 µM; with SK-OV-3 ovarian it was 37.1 µM and > 100 µM and 31.9 µM; with HS 578T breast, 15.2 µM and > 100 µM and 45 µM; with MCF7 breast, 0.478 µM. Further, the TGI in the test with DU-145 prostate was 52.4 µM and > 100 µM; with SK-MEL-5 melanoma, > 100 µM and 20.8 µM and 29.2 µM; with 786-0 renal, 33.4 µM and > 80.9 µM and 36.5 µM; in the test with SNB-19 CNS, greater than 100 µM; with MDA-MB-231 breast, 42.9 µM and 32 µM and 53.5 µM; with SK-OV-3 ovarian, greater than 100 µM. Moreover, the TGI in the test on PC-3 prostate is 26.6 µM and > 100 µM and 32 µM; with CCRF-CEM leukemia, 37.2 µM and 5.68 µM; in the test with HS 578T breast, 40.9 µM and > 100 µM and > 90.6 µM; with MCF7 breast it was 22.7 µM and 39.3 µM and > 93.5 µM.

Consider `c1ccc2c(c1)[nH]c1c2cc[n+]2cc3c(cc12)CCCC3`, for which the TGI in the test with DU-145 prostate was 11 µM and 17 µM; in the test on SK-MEL-5 melanoma it was 3.22 µM and 5.83 µM; in the test with 786-0 renal, 16.4 µM and 12.7 µM; with SNB-19 CNS, 12 µM and 9.35 µM; in the test with MDA-MB-231 breast it was 10 µM and 12.7 µM; with SK-OV-3 ovarian it was 14.2 µM and 14.4 µM. The TGI is 10.9 µM and 29 µM in the test with PC-3 prostate; 12.7 µM in the test with CCRF-CEM leukemia; 12.2 µM and > 100 µM with HS 578T breast; 10.9 µM and 11 µM in the test on MCF7 breast. In addition, the GI50 was 1.29 µM in the test with SK-MEL-5 melanoma; 4 µM in the test on 786-0 renal; 2.97 µM in the test with MDA-MB-231 breast; 2.76 µM with CCRF-CEM leukemia; 2.63 µM in the test on HS 578T breast.

For the compound `CC(C)(C)[Si](C)(C)OC1[C@@H](CNC(=O)NC(=O)CCl)O[C@@H](n2cnc3c(N)ncnc32)[C@H]1O[Si](C)(C)C(C)(C)C` (stereo not given in full), the GI50 is 2.05 µM with DU-145 prostate; 0.862 µM with SK-MEL-5 melanoma; 0.662 µM with 786-0 renal; 2.43 µM in the test with SNB-19 CNS; 0.905 µM in the test with MDA-MB-231 breast; 1.05 µM in the test with SK-OV-3 ovarian. In addition, the GI50 is 0.942 µM with PC-3 prostate, 0.121 µM with CCRF-CEM leukemia, 1.14 µM in the test on HS 578T breast and 0.724 µM in the test on MCF7 breast. The TGI in the test with DU-145 prostate stood at 5.26 µM; in the test with SK-MEL-5 melanoma it was 1.6 µM; with 786-0 renal, 1.55 µM; with SNB-19 CNS, 9.46 µM; with MDA-MB-231 breast, 1.71 µM; with SK-OV-3 ovarian, 2.01 µM. The TGI in the test on PC-3 prostate is 2.05 µM; in the test with CCRF-CEM leukemia, 0.326 µM; in the test with HS 578T breast, 3.17 µM; in the test on MCF7 breast it was 1.51 µM.

Turning to `O=C(c1ccco1)c1c(C(F)(F)F)n([O-])c2ccc(C(F)(F)F)cc2[n+]1=O`, the GI50 with DU-145 prostate was 0.5 µM; in the test on SK-MEL-5 melanoma it was 0.508 µM; in the test with 786-0 renal it was 0.426 µM; in the test with SNB-19 CNS, 1.51 µM; with MDA-MB-231 breast it was 0.298 µM; in the test on SK-OV-3 ovarian it was 1.12 µM. Also, the GI50 with PC-3 prostate is 0.132 µM; with CCRF-CEM leukemia, 0.207 µM; in the test with HS 578T breast, 0.654 µM; in the test with MCF7 breast it was 0.307 µM. Moreover, the TGI with DU-145 prostate is 0.925 µM; in the test with SK-MEL-5 melanoma, 1.09 µM; in the test on 786-0 renal, 0.831 µM; in the test on SNB-19 CNS, 2.92 µM; in the test with MDA-MB-231 breast, 0.768 µM; with SK-OV-3 ovarian it was 2.48 µM. Besides, the TGI with PC-3 prostate worked out at 0.262 µM; in the test with CCRF-CEM leukemia, 0.793 µM; with HS 578T breast it was 2.74 µM; in the test on MCF7 breast, 0.872 µM.

`CO[C@H]1Nc2c(ccc(C)c2O)C(=O)N2C=C(/C=C/C(N)=O)C[C@@H]12`: the TGI was greater than 62 µM in the test with DU-145 prostate; 0.0308 µM with SK-MEL-5 melanoma; 2.03 µM in the test on 786-0 renal; greater than 58.2 µM with SNB-19 CNS; 0.0333 µM in the test on MDA-MB-231 breast; 3.72 µM in the test with SK-OV-3 ovarian. Besides, the TGI with PC-3 prostate was 0.656 µM; in the test on CCRF-CEM leukemia, greater than 50.6 µM; with HS 578T breast it was 0.0407 µM; with MCF7 breast, 8.05 µM.
